“And” between values parts separate entries of the source, which are not always exact repeats. Equal values may be shown once. Inconclusive results and toxic doses are left out. No stated cut-off is given here; in the data, active means T/C of 150% or more; inactive means T/C below 125%.
Test system: L1210 leukemia ip in BDF1 mice, survival T/C
Test: NCI In Vivo Anticancer Drug Screen. Data for tumor model L1210 Leukemia (intraperitoneal) in B6D2F1 (BDF1) mice
Conditions: endpoint: mean survival time, higher = longer survival
Summary of the method: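 Ratio derived from survival: compound-dosed mice over vehicle-dosed mice, all bearing a transplantable tumor.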

[1] = dose: 100.0 mg/kg/injection, schedule: Q01DX001 (ip), vehicle: saline
[2] = dose: 200.0 mg/kg/injection, schedule: Q01DX001 (ip), vehicle: saline
[3] = dose: 400.0 mg/kg/injection, schedule: Q01DX001 (ip), vehicle: saline
[4] = dose: 75.0 mg/kg/injection, schedule: Q01DX001 (ip), vehicle: saline
[5] = dose: 100.0 mg/kg/injection, schedule: Q04DX003 (ip), vehicle: Klucel (hydroxypropylcellulose) (HPC)
[6] = dose: 200.0 mg/kg/injection, schedule: Q04DX003 (ip), vehicle: Klucel (hydroxypropylcellulose) (HPC)
[7] = dose: 400.0 mg/kg/injection, schedule: Q04DX003 (ip), vehicle: Klucel (hydroxypropylcellulose) (HPC)
[8] = dose: 50.0 mg/kg/injection, schedule: Q01DX009 (ip), vehicle: Klucel (hydroxypropylcellulose) (HPC)
[9] = dose: 50.0 mg/kg/injection, schedule: Q04DX003 (ip), vehicle: Klucel (hydroxypropylcellulose) (HPC)
[10] = dose: 100.0 mg/kg/injection, schedule: Q04DX003 (ip), vehicle: saline with Tween-80
[11] = dose: 200.0 mg/kg/injection, schedule: Q04DX003 (ip), vehicle: saline with Tween-80
[12] = dose: 400.0 mg/kg/injection, schedule: Q04DX003 (ip), vehicle: saline with Tween-80
[13] = dose: 100.0 mg/kg/injection, schedule: Q01DX009 (ip), vehicle: saline with Tween-80
[14] = dose: 200.0 mg/kg/injection, schedule: Q01DX009 (ip), vehicle: saline with Tween-80

Measured: T/C

C[N+](C)(CCc1ccccc1)CC(O)COc1ccccc1 (configuration not stated)
inactive: dose: 4.5 mg/kg/injection, schedule: Q01DX009 (ip), vehicle: Klucel (hydroxypropylcellulose) (HPC) 89 % of control | dose: 9.0 mg/kg/injection, schedule: Q01DX009 (ip), vehicle: Klucel (hydroxypropylcellulose) (HPC) 92 % of control | dose: 18.0 mg/kg/injection, schedule: Q01DX009 (ip), vehicle: Klucel (hydroxypropylcellulose) (HPC) 94 % of control | dose: 18.75 mg/kg/injection, schedule: Q04DX003 (ip), vehicle: Klucel (hydroxypropylcellulose) (HPC) 98 % of control

CC(NP1(=O)OCC(C)(N)CO1)c1ccccc1 (configuration not stated)
inactive: dose: 50.0 mg/kg/injection, schedule: Q01DX001 (ip), vehicle: saline 108 % of control | [1] 102 % of control | [2] 106 % of control | [3] 93 % of control

COc1c2ccccc2cc2ccccc12
inactive: dose: 50.0 mg/kg/injection, schedule: Q01DX009 (ip), vehicle: acetone 94 % of control | dose: 100.0 mg/kg/injection, schedule: Q01DX009 (ip), vehicle: acetone 92 % of control | dose: 200.0 mg/kg/injection, schedule: Q01DX009 (ip), vehicle: acetone 89 % of control

F[Si](c1ccccc1)(c1ccccc1)c1ccccc1
inactive: dose: 37.5 mg/kg/injection, schedule: Q01DX009 (ip), vehicle: saline 88 % of control | [4] 93 % of control | dose: 75.0 mg/kg/injection, schedule: Q01DX009 (ip), vehicle: saline 95 % of control | dose: 150.0 mg/kg/injection, schedule: Q01DX001 (ip), vehicle: saline 102 % of control | dose: 150.0 mg/kg/injection, schedule: Q01DX009 (ip), vehicle: saline 95 % of control | dose: 300.0 mg/kg/injection, schedule: Q01DX001 (ip), vehicle: saline 93 % of control

CC1CCC(C(C)C)C(NCc2cc(Cl)cc(Cl)c2O)C1 (configuration not stated)
inactive: [5] 104 % of control | [6] 101 % of control | [7] 97 % of control

Nc1ccccc1SC1CC(=O)N(c2ccc(Br)cc2Cl)C1=O (configuration not stated)
inactive: [8] 90 % of control and 92 % of control | dose: 100.0 mg/kg/injection, schedule: Q01DX009 (ip), vehicle: Klucel (hydroxypropylcellulose) (HPC) 91 % of control | [5] 98 % of control | dose: 200.0 mg/kg/injection, schedule: Q01DX009 (ip), vehicle: Klucel (hydroxypropylcellulose) (HPC) 93 % of control and 96 % of control and 91 % of control | [6] 93 % of control | dose: 400.0 mg/kg/injection, schedule: Q01DX009 (ip), vehicle: Klucel (hydroxypropylcellulose) (HPC) 96 % of control | [7] 93 % of control

CC12CC(c3ccoc3)OC(=O)C1CCC1(C)C2C2C=CC1(O)C(=O)O2 (configuration not stated)
inactive: [1] 104 % of control | [2] 98 % of control | [3] 104 % of control

C=C1C(=O)O[C@@H]2[C@H]1CC[C@H](C)[C@@H]1CCC(=O)[C@@]21C
inactive: [1] 102 % of control | [2] 100 % of control | [3] 98 % of control

Cc1ccc(S(=O)(=O)N=Nc2c(O)[nH]c3cc(O)c(C(=O)O)cc23)cc1
inactive: [9] 103 % of control | [5] 92 % of control | [10] 100 % of control | [6] 92 % of control and 98 % of control | [11] 110 % of control | [7] 95 % of control | [12] 110 % of control

CCCCN1c2ccccc2NP1(=S)c1ccccc1 (configuration not stated)
inactive: dose: 100.0 mg/kg/injection, schedule: Q04DX002 (ip), vehicle: DMSO 93 % of control | dose: 200.0 mg/kg/injection, schedule: Q04DX002 (ip), vehicle: DMSO 101 % of control

CC(C)(C)C[CH2][Hg][Cl]
inactive: dose: 6.25 mg/kg/injection, schedule: Q04DX003 (ip), vehicle: Klucel (hydroxypropylcellulose) (HPC) 92 % of control | dose: 12.5 mg/kg/injection, schedule: Q04DX003 (ip), vehicle: Klucel (hydroxypropylcellulose) (HPC) 94 % of control

CC(=O)NCC(O)c1ccccc1 (configuration not stated)
inactive: [1] 94 % of control | [2] 100 % of control | [3] 91 % of control

CCCCNC(C)(C)C(SSSC(c1ccc(Cl)cc1)C(C)(C)NCCCC)c1ccc(Cl)cc1 (configuration not stated)
inactive: dose: 12.0 mg/kg/injection, schedule: Q01DX009 (ip), vehicle: Klucel (hydroxypropylcellulose) (HPC) 104 % of control | dose: 25.0 mg/kg/injection, schedule: Q01DX009 (ip), vehicle: Klucel (hydroxypropylcellulose) (HPC) 100 % of control | [8] 100 % of control

COc1cc(C(=O)N/N=C/c2ccc(N(C)C)cc2)cc(OC)c1OC
inactive: [10] 102 % of control | [11] 102 % of control | [12] 89 % of control

Cc1cc(NCC(O)C(O)C(O)CO)c(C(=O)NN)cc1C (configuration not stated)
inactive: [1] 101 % of control | [2] 96 % of control | [3] 95 % of control

C#CC(C)N1CCC2(CC1)C(=O)NCN2c1ccccc1 (configuration not stated)
inactive: dose: 100.0 mg/kg/injection, schedule: Q01DX001 (ip), vehicle: Klucel (hydroxypropylcellulose) (HPC) 98 % of control | dose: 200.0 mg/kg/injection, schedule: Q01DX001 (ip), vehicle: Klucel (hydroxypropylcellulose) (HPC) 97 % of control | dose: 400.0 mg/kg/injection, schedule: Q01DX001 (ip), vehicle: Klucel (hydroxypropylcellulose) (HPC) 95 % of control

CC1=CC=CC(=O)C1(C)C(Cl)Cl (configuration not stated)
inactive: [13] 91 % of control | [10] 97 % of control | [14] 104 % of control | [11] 108 % of control | dose: 400.0 mg/kg/injection, schedule: Q01DX009 (ip), vehicle: saline with Tween-80 109 % of control | [12] 94 % of control

O=c1c2nccnc2[nH]n1-c1ccccc1
inactive: dose: 25.0 mg/kg/injection, schedule: Q04DX003 (ip), vehicle: Klucel (hydroxypropylcellulose) (HPC) 90 % of control | [9] 95 % of control

COc1ccc([N+](=O)[O-])c2conc12
inactive: dose: 50.0 mg/kg/injection, schedule: Q01DX009 (ip), vehicle: saline with Tween-80 95 % of control | [13] 98 % of control | [14] 103 % of control

Fc1cccc2ccccc12
inactive: [13] 105 % of control | [14] 87 % of control

CS(=O)(=O)NC(=O)C[P+](c1ccccc1)(c1ccccc1)c1ccccc1
inactive: [1] 96 % of control | [2] 89 % of control | [3] 98 % of control

CCOC(=O)C(C[N+](C)(CC)CC)c1ccccc1 (configuration not stated)
inactive: dose: 88.8 mg/kg/injection, schedule: Q01DX001 (ip), vehicle: carboxymethylcellulose (CMC) 97 % of control and 102 % of control | dose: 100.0 mg/kg/injection, schedule: Q01DX001 (ip), vehicle: carboxymethylcellulose (CMC) 113 % of control | dose: 133.0 mg/kg/injection, schedule: Q01DX001 (ip), vehicle: carboxymethylcellulose (CMC) 105 % of control and 114 % of control | dose: 200.0 mg/kg/injection, schedule: Q01DX001 (ip), vehicle: carboxymethylcellulose (CMC) 107 % of control and 118 % of control | dose: 300.0 mg/kg/injection, schedule: Q01DX001 (ip), vehicle: carboxymethylcellulose (CMC) 95 % of control and 104 % of control | dose: 400.0 mg/kg/injection, schedule: Q01DX001 (ip), vehicle: carboxymethylcellulose (CMC) 98 % of control

[Cu+2].[NH-]CC(=O)O.[NH-]CC(=O)O
inactive: dose: 5.0 mg/kg/injection, schedule: Q04DX003 (ip), vehicle: saline 103 % of control | dose: 10.0 mg/kg/injection, schedule: Q04DX003 (ip), vehicle: saline 99 % of control | dose: 20.0 mg/kg/injection, schedule: Q04DX003 (ip), vehicle: saline 94 % of control

COCCCNP(=O)(OC(C)C)OC(C)C
inactive: dose: 100.0 mg/kg/injection, schedule: Q01DX001 (ip), vehicle: acetone 109 % of control | dose: 100.0 mg/kg/injection, schedule: Q04DX003 (ip), vehicle: acetone 97 % of control | dose: 200.0 mg/kg/injection, schedule: Q01DX001 (ip), vehicle: acetone 98 % of control | dose: 200.0 mg/kg/injection, schedule: Q04DX003 (ip), vehicle: acetone 95 % of control | dose: 400.0 mg/kg/injection, schedule: Q01DX001 (ip), vehicle: acetone 110 % of control | dose: 400.0 mg/kg/injection, schedule: Q04DX003 (ip), vehicle: acetone 95 % of control

CC/C(=N\[N+](C)(C)C)c1ccccc1
inactive: dose: 18.8 mg/kg/injection, schedule: Q04DX003 (ip), vehicle: saline 100 % of control | dose: 37.5 mg/kg/injection, schedule: Q04DX003 (ip), vehicle: saline 97 % of control | [4] 100 % of control | dose: 75.0 mg/kg/injection, schedule: Q04DX003 (ip), vehicle: saline 100 % of control
